Measurements from patent publication US7208503B2, “Angiogenesis inhibiting 5-substituted-1,2,4-thiadiazolyl derivatives” (Janssen Pharmaceutica N.V., priority 2000, dated 2007).

Test system: rat aortic ring microvessel formation
Test: rat aortic ring model of angiogenesis (microvessel formation)
Format: cell-based
Conditions: 192 h; in vitro rat aortic rings, microvessel area after eight days in culture, compared to vehicle-treated control rings; read-out: IC50 (inhibition of microvessel formation, angiogenesis inhibitory activity)
Experimental: Angiogenesis inhibitory activity was measured in vitro using the rat aortic ring model of angiogenesis as described by Nicosia, R. F. and Ottinetti in “Laboratory Investigation”, vol. 63, p. 115, 1990. The ability of compounds to inhibit microvessel formation was compared to vehicle-treated control rings. Quantitation (microvessel area) following eight days in culture was performed using an image analysis system, consisting of a light microscope, a CCD camera and an automated, custom-designed image analysis program as described by Nissanov, J., Tuman, R. W., Gruver, L. M., and Fortunato, J. M. in “Laboratory Investigation”, vol 73 (#5), p. 734, 1995. Compounds were tested at several concentrations for determination of inhibitory potency (IC50's).

Row | IC50 | SMILES
1 | < 10 nM | Cc1nsc(-c2ccc(N3CCN(c4cccc(C(F)(F)F)c4)CC3)cc2)n1 [Compound 2, 1-[4-(3-methyl-1,2,4-thiadiazol-5-yl)phenyl]-4-[3-(trifluoromethyl)phenyl]piperazine]
2 | < 10 nM | Cc1nsc(-c2ccc(N3CCN(c4cccc(C(F)(F)F)c4)CC3)nc2)n1 [Compound 6, 1-[5-(3-methyl-1,2,4-thiadiazol-5-yl)-2-pyridinyl]-4-[3-(trifluoromethyl)-phenyl]-piperazine]
